Laboratory results published in patent US7601686B2, “Hepatitis C virus inhibitors” (Bristol-Myers Squibb Company, priority 2005, dated 2009).
Like-named read-outs stand apart in the source and are kept apart here.

Key:
[1] = target: T1, HCV NS3/4A protease complex, BMS strain (UniProt P27958, species not given/STRAIN_BMS); assay: FRET peptide assay to monitor HCV NS3/4A proteolytic activity (BMS strain); type: biochemical, Hepatitis C virus (genotype 1a)
T1 construct: DNA encoding the recombinant HCV NS3/4A protease complex (amino acids 1027 to 1711) for these strains [H77 and J4L6S]; fused on or other part: For the H77 and J4L6S constructs, a three-lysine solubilising tail at the NS4A C-terminus and a Ni-NTA-purifiable tag from pET21b
T1 sequence (P27958 1027-1657, stated change not applied, one chain of several): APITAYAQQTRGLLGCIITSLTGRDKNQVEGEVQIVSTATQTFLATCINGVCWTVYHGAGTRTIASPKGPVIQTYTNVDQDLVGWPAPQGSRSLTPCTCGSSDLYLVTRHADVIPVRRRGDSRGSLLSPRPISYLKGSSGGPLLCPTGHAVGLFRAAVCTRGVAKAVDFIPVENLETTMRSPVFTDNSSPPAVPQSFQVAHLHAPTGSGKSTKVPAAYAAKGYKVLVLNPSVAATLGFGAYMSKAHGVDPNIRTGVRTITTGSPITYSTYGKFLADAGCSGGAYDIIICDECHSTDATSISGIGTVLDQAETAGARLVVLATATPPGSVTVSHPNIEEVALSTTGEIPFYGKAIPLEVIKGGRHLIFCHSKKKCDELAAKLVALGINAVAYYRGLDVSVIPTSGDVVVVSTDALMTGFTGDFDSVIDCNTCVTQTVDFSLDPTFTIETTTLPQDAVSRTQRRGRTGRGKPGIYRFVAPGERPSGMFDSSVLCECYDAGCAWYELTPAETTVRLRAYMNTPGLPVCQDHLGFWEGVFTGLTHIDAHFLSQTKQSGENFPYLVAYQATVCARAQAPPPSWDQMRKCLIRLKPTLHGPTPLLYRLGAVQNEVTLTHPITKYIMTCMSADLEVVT
Description: Generation of Recombinant HCV NS3/4A Protease Complex
HCV NS3 protease complexes, derived from the BMS strain, H77 strain or J4L6S strain, were generated, as described below. These purified recombinant proteins were generated for use in a homogeneous assay (see below) to provide an indication of how effective compounds of the present disclosure would be in inhibiting HCV NS3 proteolytic activity.
Serum from an HCV-infected patient was obtained from Dr. T. Wright, San Francisco Hospital. An engineered full-length cDNA (compliment deoxyribonucleic acid) template of the HCV genome (BMS strain) was constructed from DNA fragments obtained by reverse transcription-PCR (RT-PCR) of serum RNA (ribonucleic acid) and using primers selected on the basis of homology between other genotype 1a strains. From the determination of the entire genome sequence, a genotype 1a was assigned to the HCV isolate according to the classification of Simmonds et al. (See P Simmonds, K A Rose, S Graham, S W Chan, F McOmish, B C Dow, E A Follett, P L Yap and H Marsden, J. Clin. Microbiol., 31(6), 1493-1503 (1993)). […] The infectious clones, H77 (1a genotype) and J4L6S (1b genotype) were obtained from R. Purcell (NIH) and the sequences are published in Genbank (AAB67036, see Yanagi, M., Purcell, R. H., Emerson, S. U. and Bukh, J. Proc. Natl. Acad. Sci. U.S.A. 94(16), 8738-8743 (1997); AF054247, see Yanagi, M., St Claire, M., Shapiro, M., Emerson, S. U., Purcell, R. H. and Bukh, J, Virology 244 (1), 161-172. (1998)).
The H77 and J4L6S strains were used for production of recombinant NS3/4A protease complexes. DNA encoding the recombinant HCV NS3/4A protease complex (amino acids 1027 to 1711) for these strains were manipulated as described by P. Gallinari et al. (see Gallinari P, Paolini C, Brennan D, Nardi C, Steinkuhler C, De Francesco R. Biochemistry. 38(17):5620-32, (1999)). Briefly, a three-lysine solubilizing tail was added at the 3′-end of the NS4A coding region. The cysteine in the P1 position of the NS4A-NS4B cleavage site (amino acid 1711) was changed to a glycine to avoid the proteolytic cleavage of the lysine tag. Furthermore, a cysteine to serine mutation was introduced by PCR at amino acid position 1454 to prevent the autolytic cleavage in the NS3 helicase domain. The variant DNA fragment was cloned in the pET21b bacterial expression vector (Novagen) and the NS3/4A complex was expressed in Escherichia coli strain BL21 (DE3) (Invitrogen) following the protocol described by P. Gallinari et al. (see Gallinari P, Brennan D, Nardi C, Brunetti M, Tomei L, Steinkuhler C, De Francesco R., J. Virol. 72(8):6758-69 (1998)) with modifications. Briefly, the NS3/4A protease complex expression was induced with 0.5 millimolar (mM) Isopropyl β-D-1-thiogalactopyranoside (IPTG) for 22 hours (h) at 20° C. A typical fermentation (1 Liter (L)) yielded approximately 10 grams (g) of wet cell paste. The cells were resuspended in lysis buffer (10 mL/g) consisting of 25 mM N-(2-Hydroxyethyl)piperazine-N′-(2-Ethane Sulfonic acid) (HEPES), pH 7.5, 20% glycerol, 500 mM Sodium Chloride (NaCl), 0.5% Triton X-100, 1 microgram/milliliter (“μg/mL”) lysozyme, 5 mM Magnesium Chloride (MgCl2), 1 μg/mL DnaseI, 5 mM β-Mercaptoethanol (βME), Protease inhibitor—Ethylenediamine Tetraacetic acid (EDTA) free (Roche), homogenized and incubated for 20 minutes (min) at 4° C. The homogenate was sonicated and clarified by ultra-centrifugation at 235000 g for 1 h at 4° C. Imidazole was added to the supernatant to a final concentration of 15 mM and the pH adjusted to 8.0. The crude protein extract was loaded on a Nickel—Nitrilotriacetic acid (Ni-NTA) column pre-equilibrated with buffer B (25 mM HEPES, pH 8.0, 20% glycerol, 500 mM NaCl, 0.5% Triton X-100, 15 mM imidazole, 5 mM βME). The sample was loaded at a flow rate of 1 mL/min. The column was washed with 15 column volumes of buffer C (same as buffer B except with 0.2% Triton X-100). […]

[2] = test system: HCV replicon in HUH-7 cells; assay: HCV replicon FRET assay; type: cell-based, Hepatitis C virus (strain 1b); details: HCV replicon cell assay, HUH-7, read-out: EC50 Range
Description: Generation of HCV Replicon
An HCV replicon whole cell system was established as described by Lohmann V, Korner F, Koch J, Herian U, Theilmann L, Bartenschlager R., Science 285(5424):110-3 (1999). This system enabled us to evaluate the effects of our HCV Protease compounds on HCV RNA replication. Briefly, using the HCV strain 1b sequence described in the Lohmann paper (Assession number:AJ238799), an HCV cDNA was synthesized by Operon Technologies, Inc. (Alameda, Calif.), and the full-length replicon was then assembled in plasmid pGem9zf(+) (Promega, Madison, Wis.) using standard molecular biology techniques. The replicon consists of (i) the HCV 5′ UTR fused to the first 12 amino acids of the capsid protein, (ii) the neomycin phosphotransferase gene (neo), (iii) the IRES from encephalomyocarditis virus (EMCV), and (iv) HCV NS3 to NS5B genes and the HCV 3′ UTR. Plasmid DNAs were linearized with ScaI and RNA transcripts were synthesized in vitro using the T7 MegaScript transcription kit (Ambion, Austin, Tex.) according to manufacturer's directions. In vitro transcripts of the cDNA were transfected into the human hepatoma cell line, HUH-7. […] Resulting cell lines were characterized for positive and negative strand RNA production and protein production over time.
The HCV replicon FRET assay was developed to monitor the inhibitory effects of compounds described in the disclosure on HCV viral replication. HUH-7 cells, constitutively expressing the HCV replicon, were grown in Dulbecco's Modified Eagle Media (DMEM) (Gibco-BRL) containing 10% Fetal calf serum (FCS) (Sigma) and 1 mg/mL G418 (Gibco-BRL). Cells were seeded the night before (1.5×10^4 cells/well) in 96-well tissue-culture sterile plates. Compound and no compound controls were prepared in DMEM containing 4% FCS, 1:100 Penicillin/Streptomysin (Gibco-BRL), 1:100 L-glutamine and 5% DMSO in the dilution plate (0.5% DMSO final concentration in the assay). Compound/DMSO mixes were added to the cells and incubated for 4 days at 37° C. After 4 days, cells were first assessed for cytotoxicity using alamar Blue (Trek Diagnotstic Systems) for a CC50 reading. The toxicity of compound (CC50) was determined by adding 1/10th volume of alamar Blue to the media incubating the cells. After 4 h, the fluorescence signal from each well was read, with an excitation wavelength at 530 nm and an emission wavelength of 580 nm, using the Cytofluor Series 4000 (Perspective Biosystems). Plates were then rinsed thoroughly with Phosphate-Buffered Saline (PBS) (3 times 150 μl).

[3] = read-out: IC 50 Range; NS3/4A BMS strain, enzyme assay
[4] = NS3/4A BMS strain, enzyme assay; read-out: IC 50 Range

Compound | EC50 ([2]; Hepatitis C virus) | IC50 [1, 4] | further results
C=CC1CC1(NC(=O)[C@@H]1C[C@@H](NC(=O)OCC2c3ccccc3-c3ccccc32)CN1C(=O)[C@@H](NC(=O)OC(C)(C)C)C(C)(C)C)C(=O)NS(=O)(=O)C1CC1 (mixture of isomers) [Compound 5, [1-(2-tert-butoxycarbonylamino-3,3-dimethyl-butyryl)-5-(1-cyclopropanesulfonylaminocarbonyl-2-vinyl-cyclopropylcarbamoyl)-pyrrolidin-3-yl]-carbamic acid 9H-fluoren-9-ylmethyl ester] | 0.15 to 15 µM | – | IC50 [1, 3]: 0.15 to 15 µM
C=CC1CC1(NC(=O)[C@@H]1C[C@@H](NC(=O)c2sc3ccccc3c2Cl)CN1C(=O)[C@@H](NC(=O)CC1CC1)C(C)(C)C)C(=O)O (single isomer, unassigned) [Compound 1, 1-({4-[(3-Chloro-benzo[b]thiophene-2-carbonyl)-amino]-1-[2-(2-cyclopropyl-acetylamino)-3,3-dimethyl-butyryl]-pyrrolidine-2-carbonyl}-amino)-2-vinyl-cyclopropanecarboxylic acid] | – | 0.15 to 15 µM | –
C=CC1CC1(NC(=O)[C@@H]1C[C@@H](NC(=O)c2sc3ccccc3c2Cl)CN1C(=O)[C@@H](NC(=O)CC1CC1)C(C)(C)C)C(=O)O (single isomer, unassigned) [Compound 2, 1-({4-[(3-Chloro-benzo[b]thiophene-2-carbonyl)-amino]-1-[2-(2-cyclopropyl-acetylamino)-3,3-dimethyl-butyryl]-pyrrolidine-2-carbonyl}-amino)-2-vinyl-cyclopropanecarboxylic acid] | – | > 15 µM | –
C=CC1CC1(NC(=O)[C@@H]1C[C@@H](NC(=O)c2sc3ccccc3c2Cl)CN1C(=O)[C@@H](NC(=O)CC1CC1)C(C)(C)C)C(=O)NS(=O)(=O)C1CC1 (single isomer, unassigned) [Compound 3] | 0.15 to 15 µM | < 0.15 µM | –
C=CC1CC1(NC(=O)[C@@H]1C[C@@H](NC(=O)c2sc3ccccc3c2Cl)CN1C(=O)[C@@H](NC(=O)CC1CC1)C(C)(C)C)C(=O)NS(=O)(=O)C1CC1 (single isomer, unassigned) [Compound 4] | – | < 0.15 µM | EC50 [2]: 0.15 to 15 µM
C=CC1CC1(NC(=O)[C@@H]1CC(NC(=O)c2cc(-c3ccccc3)nc3ccccc23)CN1C(=O)[C@@H](NC(=O)OC(C)(C)C)C(C)(C)C)C(=O)NS(=O)(=O)C1CC1 (stereo partly shown) [Compound 6] | 0.15 to 15 µM | < 0.15 µM | –
C=CC1CC1(NC(=O)[C@@H]1C[C@@H](NC(=O)OCC2c3ccccc3-c3ccccc32)CN1C(=O)[C@@H](NC(=O)CC1CC1)C(C)(C)C)C(=O)NS(=O)(=O)C1CC1 (stereo partly shown) [Compound 7] | > 15 µM | 0.15 to 15 µM | –
C=CC1CC1(NC(=O)[C@@H]1C[C@@H](NC(=O)c2ccnc3ccccc23)CN1C(=O)[C@@H](NC(=O)CC1CC1)C(C)(C)C)C(=O)NS(=O)(=O)C1CC1 (stereo partly shown) [Compound 10] | > 15 µM | 0.15 to 15 µM | –
C=CC1CC1(NC(=O)[C@@H]1C[C@@H](NC(=O)c2ccnc3ccccc23)CN1C(=O)[C@@H](NC(=O)CC1CC1)C(C)(C)C)C(=O)NS(=O)(=O)C1CC1 (stereo partly shown) [Compound 11] | – | 0.15 to 15 µM | –
C=CC1CC1(NC(=O)[C@@H]1C[C@@H](NC(=O)c2ccsc2)CN1C(=O)[C@@H](NC(=O)CC1CC1)C(C)(C)C)C(=O)NS(=O)(=O)C1CC1 (stereo partly shown) [Compound 12] | > 15 µM | 0.15 to 15 µM | –
C=CC1CC1(NC(=O)[C@@H]1C[C@@H](NC(=O)c2ccncc2)CN1C(=O)[C@@H](NC(=O)CC1CC1)C(C)(C)C)C(=O)NS(=O)(=O)C1CC1 (stereo partly shown) [Compound 15] | – | 0.15 to 15 µM | –
C=CC1CC1(NC(=O)[C@@H]1C[C@@H](NC(=O)c2cnc(N3CCCCC3)nc2-c2ccccc2)CN1C(=O)[C@@H](NC(=O)CC1CC1)C(C)(C)C)C(=O)NS(=O)(=O)C1CC1 (stereo partly shown) [Compound 23] | – | 0.15 to 15 µM | –
C=CC1CC1(NC(=O)[C@@H]1C[C@@H](NC(=O)c2c(OC)cccc2OC)CN1C(=O)[C@@H](NC(=O)CC1CC1)C(C)(C)C)C(=O)NS(=O)(=O)C1CC1 (stereo partly shown) [Compound 36] | – | 0.15 to 15 µM | –
C=CC1CC1(NC(=O)[C@@H]1C[C@@H](N(C)C(=O)c2cc(-c3ccccc3)nc3ccccc23)CN1C(=O)[C@@H](NC(=O)OC(C)(C)C)C(C)(C)C)C(=O)NS(=O)(=O)C1CC1 (stereo partly shown) [Compound 42] | – | 0.15 to 15 µM | –
C=CC1CC1(NC(=O)[C@@H]1C[C@@H](NC(=S)Nc2cccc3ccccc23)CN1C(=O)[C@@H](NC(=O)OC(C)(C)C)C(C)(C)C)C(=O)NS(=O)(=O)C1CC1 (stereo partly shown) [Compound 46] | – | – | IC50 [1, 3]: 0.15 to 15 µM
C=CC1CC1(NC(=O)[C@@H]1C[C@@H](NC(=O)N2CCc3ccccc3C2)CN1C(=O)[C@@H](NC(=O)CC1CC1)C(C)(C)C)C(=O)NS(=O)(=O)C1CC1 (stereo partly shown) [Compound 54] | – | – | IC50 [1, 3]: 0.15 to 15 µM
C=CC1CC1(NC(=O)[C@@H]1C[C@@H](N2CCN(Cc3ccccc3)CC2)CN1C(=O)[C@@H](NC(=O)OC)C(C)(C)C)C(=O)NS(=O)(=O)C1CC1 (stereo partly shown) [Compound 56] | – | > 15 µM | –
C=CC1CC1(NC(=O)[C@@H]1C[C@@H](N2Cc3ccccc3C2)CN1C(=O)[C@@H](NC(=O)C1CC1)C(C)(C)C)C(=O)NS(=O)(=O)C1CC1 (stereo partly shown) [Compound 57] | – | 0.15 to 15 µM | –
